Literature values, collected in patent publication US20070202055A1, “Pharmaceutical Formulations” (priority 2006, published 2007).

Columns and labels:
[1] = system: symptoms associated with chronic nasal congestion
[2] = system: secretions of natural tear components; details: preclinical testing

In the case of Oc1cccc(Nc2ncc(F)c(Nc3cccc(O)c3)n2)c1 [Example R112], the “absolute difference over placebo” value [1] is given as 9%, the “relative improvement over placebo” value [1] is given as “greater than 20%” and the “improvement from baseline measurements” value ([1]; baseline prior to drug initiation) is given as “up to 38%”.

For Cc1cc(CCCOc2c(C)cc(-c3noc(C(F)(F)F)n3)cc2C)on1 [Pleconaril, 1,2,4-oxadiazole3-[3,5-Dimethyl-4-[3-(3-methyl-5-isoxazolyl)propoxy]phenyl]-5-(trifluoremethyl)], the “solubility in aqueous solvents” value (aqueous solvents) is given as “insoluble”, the “solubility in liquids of low polarity” value (for example corn oil and ethanol) is given as “soluble only in liquids of low polarity” and the activity against rhinoviruses (rhinoviruses) is given as “active”.

In the case of O=c1ccn([C@@H]2O[C@H](COP(=O)(O)OP(=O)(O)OP(=O)(O)OP(=O)(O)OC[C@H]3O[C@@H](n4ccc(=O)[nH]c4=O)[C@H](O)[C@@H]3O)[C@@H](O)[C@H]2O)c(=O)[nH]1 [diquafosol], the “effect on secretions of natural tear components” value [2] is given as “increased the secretions of natural tear components”.
